Among the data in patent publication US10961238B2, “Modulators of hedgehog (Hh) signaling pathway” (E-THERAPEUTICS PLC, priority 2016, dated 2021) are IC50 values, retold here.

This experiment relates to C3H10T1/2 cells. The experiment can be described thus: C3H assay: differentiation of C3H10T1/2 cells by mSHH, measurement of alkaline phosphatase. It is filed as cell-based, mouse. Particulars: Mus musculus, C3H 10T1/2; C3H10T1/2 cells stimulated with mSHH for 72 hours; alkaline phosphatase activity; read-out: IC50 Ranges.
Take `O=S(=O)(C1CN(c2nc3ccccc3s2)C1)N1CCC(c2c[nH]c3ncccc23)CC1` [Compound 312, 2-[3-[4-(1H-pyrrolo[2,3-b]pyridin-3-yl)piperidin-1-yl]sulfonylaze-tidin-1-yl]-1,3-benzothiazole]: the IC50 lay in the range of 10 to 100 nM.
Consider `CN1CCC[C@H]1C(=O)N1CC(S(=O)(=O)N2CCC(c3ccccc3)CC2)C1` [Compound 315, [(2S)-1-methyl-pyrrolidin-2-yl]-[3-(4-phenylpiperidin-1-yl)sulfonylaze-tidin-1-yl]methanone], for which the IC50 was in the range of 1000 to 10000 nM.
Take `Cc1noc(C)c1C(=O)N1CC(S(=O)(=O)N2CCC(c3ccccc3)CC2)C1` [Compound 316, (3,5-dimethyl-1,2-oxazol-4-yl)-[3-(4-phenylpiperidin-1-yl)sulfonylaze-tidin-1-yl]methanone]: the IC50 fell in the range of 1000 to 10000 nM.
The same measure for `Cc1cc(Cl)ccc1C1CCN(S(=O)(=O)C2CN(C(=O)CN(C(C)C)C(C)C)C2)CC1` [Compound 317, 1-[3-[4-(4-chloro-2-methylphenyl)piperidin-1-yl]sulfonylaze-tidin-l-yl]-2-[di(propan-2-yl)amino] ethanone]: 100 to 1000 nM; for `Cc1cc(Cl)ccc1C1CCN(S(=O)(=O)C2CN(C(=O)[C@@H]3CCCN3C)C2)CC1` [Compound 318, [3-[4-(4-chloro-2-methylphenyl)piperidin-1-yl]sulfonylaze-tidin-1-yl]-[(2S)-1-methylpyrrolidin-2-yl]methanone]: 1000 to 10000 nM.
The same measure for `O=C(OC1CCOCC1)N1CC(S(=O)(=O)N2CCC(c3ccc(Cl)cc3)CC2)C1` [Compound 320, oxan-4-yl 3-[4-(4-chlorophenyl)piperidin-1-yl]sulfonylaze-tidine-1-carboxylate]: 100 to 1000 nM; for `CC(C)[C@H](CO)NC(=O)N1CC(S(=O)(=O)N2CCC(c3ccc(Cl)cc3)CC2)C1` [Compound 321, 3-[4-(4-chlorophenyl)piperidin-1-yl]sulfonyl-N-[(2R)-1-hydroxy-3-methylbutan-2-yl]azetidine-1-carboxamide]: 10 to 100 nM.
For the compound `Cc1noc(C)c1NC(=O)N1CC(S(=O)(=O)N2CCC(c3ccc(Cl)cc3)CC2)C1` [Compound 322, 3-[4-(4-chlorophenyl)piperidin-1-yl]sulfonyl-N-(3,5-dimethyl-1,2-oxazol-4-yl)azetidine-1-carboxamide], the IC50 was 10 to 100 nM.
The same measure for `CC(C)(C(=O)N1CC(S(=O)(=O)N2CCC(c3c[nH]c4ncccc34)CC2)C1)C(F)(F)F` [Compound 323, 3,3,3-trifluoro-2,2-dimethyl-1-[3-[4-(1H-pyrrolo[2,3-b]pyridin-3-yl)piperidin-1-yl]sulfonylaze-tidin-1-yl]propan-1-one]: 10 to 100 nM; for `CC(C)N(CC(=O)N1CC(S(=O)(=O)N2CCC(c3ccc(C#N)cc3)CC2)C1)C(C)C` [Compound 324, 4-[1-[1-[2-[di(propan-2-yl)amino]acetyl]azetidin-3-yl]sulfonylpiper-idin-4-yl]benzonitrile]: 10 to 100 nM.
Regarding `CN(C)CC(=O)N1CC(S(=O)(=O)N2CCC(c3c[nH]c4ncccc34)CC2)C1` [Compound 325, 2-(dimethylamino)-1-[3-[4-(1H-pyrrolo[2,3-b]pyridin-3-yl)piperidin-1-yl]sulfonylaze-tidin-1-yl]ethanone], the IC50 fell in the range of 1000 to 10000 nM.
The same measure for `CC(C)N(CC(=O)N1CC(S(=O)(=O)N2CCC(c3c[nH]c4ncccc34)CC2)C1)C(C)C` [Compound 326, 2-[di(propan-2-yl)amino]-1-[3-[4-(1H-pyrrolo [2,3-b]pyridin-3-yl)piperidin-1-yl]sulfonylaze-tidin-1-yl]ethanone]: 10 to 100 nM.
As for `CC(C)(C)OC(=O)N1CC(S(=O)(=O)N2CCC(c3ccc(F)cc3)CC2)C1` [Compound 327, tert-butyl 3-[4-(4-fluorophenyl)piperidin-l-yl]sulfonylaze-tidine-1-carboxylate], the IC50 lay in the range of 100 to 1000 nM.
For the compound `CN(C)CC(=O)N1CC(S(=O)(=O)N2CCC(c3coc4cccnc34)CC2)C1` [Compound 329, 2-(dimethylamino)-1-[3-(4-furo[3,2-b]pyridin-3-ylpiperidin-1-yl)sulfonylaze-tidin-1-yl]ethanone], the IC50 was in the range of 1000 to 10000 nM.

Usually IC50 stands for the concentration that gives 50% inhibition.
